Results as given in PMC6271425, “Synthesis and Sar Study of Diarylpentanoid Analogues as New Anti-Inflammatory Agents” (Molecules, 2014).

Test system: NO production in IFN-γ/LPS-stimulated RAW 264.7 macrophages
Assay: NO suppression (Griess nitrite determination) in IFN-γ/LPS-stimulated RAW 264.7 macrophages
Assay type: cell-based, murine
Settings: 50 µM test concentration; IFN-γ/LPS-stimulated RAW 264.7 cells; 50 µM
Method: The synthesized compounds were screened for NO suppression activity in IFN-γ/LPS-stimulated RAW 264.7 macrophages at a 50 µM test concentration. […] The IC50 values of the fifty-seven bioactive compounds were determined and compared to that of the positive control, curcumin. An MTT assay was also carried out to confirm that NO inhibition was not due to cytotoxicity. […] The complete bioassay results of all the compounds are provided as Table S2 in Supplementary Data. RAW 264.7 murine macrophages cells obtained from American Type Culture Collection (ATCC, Rockville, MD, USA) were grown in Dulbecco’s Modified Eagle’s Medium (DMEM) containing 10% fetal bovine serum (FBS) and 1% penicillin/streptomycin in a 95% air and 5% CO2 atmosphere at 37 °C. RAW 264.7 cells at 90%–95% confluency were detached and seeded (50,000 cells/well) into a 96-well culture plate with 50 μL of DMEM and incubated for 24 h. The cells were then stimulated in […] of LPS (Escherichia coli, serotype 0111:B4) and 1 ng/ml of interferon-gamma (IFN-γ) in the presence or absence of test compounds for 17 h. Nitrite concentration was then determined by Griess assay by reacting 50 μL of cell culture supernatant with 50 μL of Griess reagent (1% sulfanilamide and 0.1% N-(1-naphthyl)ethylenediamine dihydrochloride in 2.5% phosphoric acid) at room temperature. The optical density was measured at 550 nm after 5 min of incubation at room temperature with a microplate reader.

SMILES	NO Inhibition at 50 µM (%) ± S.E.M
O=C(/C=C(O)/C=C/c1ccccc1)c1cc(Cl)ccc1O [Compound 21]	85.3 ± 6.8%
O=C(/C=C(O)/C=C/c1ccccc1Cl)c1cc(Cl)ccc1O [Compound 22]	82.5 ± 4.3%
O=C(/C=C(O)/C=C/c1cccc(Cl)c1)c1cc(Cl)ccc1O [Compound 23]	66.6 ± 4.1%
COc1ccccc1/C=C/C(O)=C/C(=O)c1cc(Cl)ccc1O [Compound 24]	70.4 ± 1.3%
COc1cccc(/C=C/C(O)=C/C(=O)c2cc(Cl)ccc2O)c1 [Compound 25]	76.3 ± 6.5%
O=C(/C=C(O)/C=C/c1cccs1)c1cc(Cl)ccc1O [Compound 35]	68.8 ± 4.2%
O=C(/C=C(O)/C=C/c1ccc(Cl)s1)c1cc(Cl)ccc1O [Compound 36]	71.6 ± 3.2%
Cc1ccc(/C=C/C(O)=C/C(=O)c2cc(Cl)ccc2O)s1 [Compound 37]	56.0 ± 2.6%
O=C(/C=C(O)/C=C/c1cc(O)ccc1O)c1ccccc1O [Compound 83]	94.3 ± 1.8%

Same assay, conditions: IFN-γ/LPS-stimulated RAW 264.7 cells; read-out: NO Inhibition IC50 (µM) ± S.E.M

SMILES	IC50
COc1cccc(/C=C/C(O)=C/C(=O)c2cc(Cl)ccc2O)c1 [Compound 25]	< 20 µM
COc1cc(/C=C/C(O)=C/C(=O)c2cc(Cl)ccc2O)cc(OC)c1OC [Compound 28]	< 20 µM
O=C(/C=C(O)/C=C/c1cc(O)ccc1O)c1ccccc1O [Compound 83]	< 20 µM

Same assay, conditions: Mus musculus, RAW264.7, 50 µM test concentration; IFN-γ/LPS-stimulated RAW 264.7 cells; read-out: NO Inhibition at 50 µM (%) ± S.E.M

SMILES	inhibition at 50 µM
O=C(/C=C(O)/C=C/c1ccccc1Cl)c1ccccc1O [Compound 2]	91 ± 2.9%
COc1ccc(OC)c(/C=C/C(O)=C/C(=O)c2ccccc2O)c1 [Compound 14]	92.9 ± 0.2%
O=C(/C=C(O)/C=C/c1ccccc1)c1cc(Cl)ccc1O [Compound 21]	85.3 ± 6.76%
O=C(/C=C(O)/C=C/c1ccccc1Cl)c1cc(Cl)ccc1O [Compound 22]	82.5 ± 4.32%
O=C(/C=C(O)/C=C/c1cccc(Cl)c1)c1cc(Cl)ccc1O [Compound 23]	66.6 ± 4.11%
COc1ccccc1/C=C/C(O)=C/C(=O)c1cc(Cl)ccc1O [Compound 24]	70.4 ± 1.32%
COc1cccc(/C=C/C(O)=C/C(=O)c2cc(Cl)ccc2O)c1 [Compound 25]	76.3 ± 6.48%
COc1cc(/C=C/C(O)=C/C(=O)c2cc(Cl)ccc2O)cc(OC)c1OC [Compound 28]	89.5 ± 5.9%
O=C(/C=C(O)/C=C/c1cccs1)c1cc(Cl)ccc1O [Compound 35]	68.8 ± 4.21%
O=C(/C=C(O)/C=C/c1ccc(Cl)s1)c1cc(Cl)ccc1O [Compound 36]	71.5 ± 3.2%
Cc1ccc(/C=C/C(O)=C/C(=O)c2cc(Cl)ccc2O)s1 [Compound 37]	56 ± 2.62%
O=C(/C=C(O)/C=C/c1cc(O)ccc1O)c1ccccc1O [Compound 83]	94.3 ± 1.83%

Same assay, conditions: Mus musculus, RAW264.7, IFN-γ/LPS-stimulated RAW 264.7 cells; read-out: NO Inhibition IC50 (µM) ± S.E.M

SMILES	IC50
O=C(/C=C(O)/C=C/c1ccccc1Cl)c1ccccc1O [Compound 2]	27.32 ± 0.234 µM
COc1ccc(OC)c(/C=C/C(O)=C/C(=O)c2ccccc2O)c1 [Compound 14]	28.4 ± 0.435 µM
O=C(/C=C(O)/C=C/c1ccccc1)c1cc(Cl)ccc1O [Compound 21]	47.6 ± 1.14 µM
O=C(/C=C(O)/C=C/c1ccccc1Cl)c1cc(Cl)ccc1O [Compound 22]	30 ± 2.1 µM
O=C(/C=C(O)/C=C/c1cccc(Cl)c1)c1cc(Cl)ccc1O [Compound 23]	36.2 ± 0.922 µM
COc1ccccc1/C=C/C(O)=C/C(=O)c1cc(Cl)ccc1O [Compound 24]	36 ± 0.515 µM
COc1cccc(/C=C/C(O)=C/C(=O)c2cc(Cl)ccc2O)c1 [Compound 25]	17.4 ± 0.372 µM
COc1cc(/C=C/C(O)=C/C(=O)c2cc(Cl)ccc2O)cc(OC)c1OC [Compound 28]	13.6 ± 0.532 µM
O=C(/C=C(O)/C=C/c1cccs1)c1cc(Cl)ccc1O [Compound 35]	32.17 ± 0.176 µM
O=C(/C=C(O)/C=C/c1ccc(Cl)s1)c1cc(Cl)ccc1O [Compound 36]	25.3 ± 1.73 µM
Cc1ccc(/C=C/C(O)=C/C(=O)c2cc(Cl)ccc2O)s1 [Compound 37]	62.4 ± 2.29 µM
O=C(/C=C(O)/C=C/c1cc(O)ccc1O)c1ccccc1O [Compound 83]	16.7 ± 0.557 µM

Same assay, conditions: Mus musculus, RAW264.7, Table 6, NO suppression IC50 used for QSAR; unit inferred; read-out: IC50

SMILES	IC50
O=C(/C=C(O)/C=C/c1ccccc1Cl)c1ccccc1O [Compound 2]	27.3 ± 0.2 µM
COc1ccc(OC)c(/C=C/C(O)=C/C(=O)c2ccccc2O)c1 [Compound 14]	28.4 ± 0.4 µM
O=C(/C=C(O)/C=C/c1ccccc1)c1cc(Cl)ccc1O [Compound 21]	47.6 ± 1.1 µM
O=C(/C=C(O)/C=C/c1ccccc1Cl)c1cc(Cl)ccc1O [Compound 22]	30 ± 2.1 µM
O=C(/C=C(O)/C=C/c1cccc(Cl)c1)c1cc(Cl)ccc1O [Compound 23]	36.2 ± 0.9 µM
COc1ccccc1/C=C/C(O)=C/C(=O)c1cc(Cl)ccc1O [Compound 24]	36 ± 0.5 µM
COc1cccc(/C=C/C(O)=C/C(=O)c2cc(Cl)ccc2O)c1 [Compound 25]	17.4 ± 0.4 µM
COc1cc(/C=C/C(O)=C/C(=O)c2cc(Cl)ccc2O)cc(OC)c1OC [Compound 28]	13.6 ± 0.5 µM
O=C(/C=C(O)/C=C/c1cccs1)c1cc(Cl)ccc1O [Compound 35]	32.2 ± 0.2 µM
O=C(/C=C(O)/C=C/c1ccc(Cl)s1)c1cc(Cl)ccc1O [Compound 36]	25.3 ± 1.7 µM
Cc1ccc(/C=C/C(O)=C/C(=O)c2cc(Cl)ccc2O)s1 [Compound 37]	62.4 ± 2.3 µM
O=C(/C=C(O)/C=C/c1cc(O)ccc1O)c1ccccc1O [Compound 83]	16.7 ± 0.6 µM

Same assay, conditions: Mus musculus, RAW264.7, −log IC50 of NO suppression; read-out: pIC50 (converted)

SMILES	IC50
O=C(/C=C(O)/C=C/c1ccccc1Cl)c1ccccc1O [Compound 2]	27.5 µM
COc1ccc(OC)c(/C=C/C(O)=C/C(=O)c2ccccc2O)c1 [Compound 14]	28.2 µM
O=C(/C=C(O)/C=C/c1ccccc1)c1cc(Cl)ccc1O [Compound 21]	47.9 µM
O=C(/C=C(O)/C=C/c1ccccc1Cl)c1cc(Cl)ccc1O [Compound 22]	30.2 µM
O=C(/C=C(O)/C=C/c1cccc(Cl)c1)c1cc(Cl)ccc1O [Compound 23]	36.3 µM
COc1ccccc1/C=C/C(O)=C/C(=O)c1cc(Cl)ccc1O [Compound 24]	36.3 µM
COc1cccc(/C=C/C(O)=C/C(=O)c2cc(Cl)ccc2O)c1 [Compound 25]	17.4 µM
COc1cc(/C=C/C(O)=C/C(=O)c2cc(Cl)ccc2O)cc(OC)c1OC [Compound 28]	13.5 µM
O=C(/C=C(O)/C=C/c1cccs1)c1cc(Cl)ccc1O [Compound 35]	32.4 µM
O=C(/C=C(O)/C=C/c1ccc(Cl)s1)c1cc(Cl)ccc1O [Compound 36]	25.1 µM
Cc1ccc(/C=C/C(O)=C/C(=O)c2cc(Cl)ccc2O)s1 [Compound 37]	63.1 µM
O=C(/C=C(O)/C=C/c1cc(O)ccc1O)c1ccccc1O [Compound 83]	16.6 µM

Test system: not listed separately
Assay: Cell cytotoxicity determination (MTT assay)
Assay type: cell-based, murine
Settings: mouse, RAW 264.7 macrophage cells, RAW 264.7 cells, read-out: Cytotoxicity IC50 (µM) ± S.E.M
Method: The synthesized compounds were screened for NO suppression activity in IFN-γ/LPS-stimulated RAW 264.7 macrophages at a 50 µM test concentration. […] The IC50 values of the fifty-seven bioactive compounds were determined and compared to that of the positive control, curcumin. An MTT assay was also carried out to confirm that NO inhibition was not due to cytotoxicity. […] The complete bioassay results of all the compounds are provided as Table S2 in Supplementary Data.
RAW 264.7 murine macrophages cells obtained from American Type Culture Collection (ATCC, Rockville, MD, USA) were grown in Dulbecco’s Modified Eagle’s Medium (DMEM) containing 10% fetal bovine serum (FBS) and 1% penicillin/streptomycin in a 95% air and 5% CO2 atmosphere at 37 °C.
Supernatant in each well was removed followed by addition of 100 µL DMEM. Subsequently, 20 µL of 3-(4,5-dimethylthiazol-2-yl)-2,5-diphenyltetrazolium bromide (MTT, 5 mg/mL) was then added and the plate was incubated in a 95% air and 5% CO2 atmosphere at 37 °C for 4 h. The mixture of culture media and MTT in all wells were removed and the purplish formazan crystals formed were dissolved in dimethyl sulfoxide (DMSO) and further incubated for 15 min at room temperature. The color intensity was then measured at 570 nm at room temperature.

SMILES	IC50
O=C(/C=C(O)/C=C/c1ccccc1Cl)c1ccccc1O [Compound 2]	> 100 µM
COc1ccc(OC)c(/C=C/C(O)=C/C(=O)c2ccccc2O)c1 [Compound 14]	> 100 µM
O=C(/C=C(O)/C=C/c1ccccc1)c1cc(Cl)ccc1O [Compound 21]	> 100 µM
O=C(/C=C(O)/C=C/c1ccccc1Cl)c1cc(Cl)ccc1O [Compound 22]	> 100 µM
O=C(/C=C(O)/C=C/c1cccc(Cl)c1)c1cc(Cl)ccc1O [Compound 23]	68.4 ± 2.2 µM
COc1ccccc1/C=C/C(O)=C/C(=O)c1cc(Cl)ccc1O [Compound 24]	> 100 µM
COc1cccc(/C=C/C(O)=C/C(=O)c2cc(Cl)ccc2O)c1 [Compound 25]	> 100 µM
COc1cc(/C=C/C(O)=C/C(=O)c2cc(Cl)ccc2O)cc(OC)c1OC [Compound 28]	> 100 µM
O=C(/C=C(O)/C=C/c1cccs1)c1cc(Cl)ccc1O [Compound 35]	> 100 µM
O=C(/C=C(O)/C=C/c1ccc(Cl)s1)c1cc(Cl)ccc1O [Compound 36]	> 100 µM
Cc1ccc(/C=C/C(O)=C/C(=O)c2cc(Cl)ccc2O)s1 [Compound 37]	> 100 µM
